Data on one molecule can be found in ChEMBL document CHEMBL1157308, “Daphniyunnines A-E, alkaloids from Daphniphyllum yunnanense” (J Nat Prod, 2006).

The subject of experiment [1] is P388. The experiment is described as follows: Cytotoxicity against mouse P388 cells. It counts as functional, cell-based.
Experiment [2] deals with A549. The experiment is described as follows: Cytotoxicity against human A549 cells. It counts as functional, cell-based.

SMILES strings stand for the structures.

For the molecule `C[C@@H]1CN2C[C@H]3CCC4=C5[C@@](O)(CC[C@@]56C(=O)[C@@H]1C[C@@H]2[C@@]36C)CC4=O` [DAPHNIYUNNINE D], the IC50 was determined as 3 µM in experiment [1] and 0.6 µM in experiment [2].

The term IC50 denotes the concentration at which inhibition is half-maximal.
